For seven compounds, MIC results are on record in patent publication US9650395B2, “Antibacterial compounds and methods for use” (PTC Therapeutics, Inc., priority 2011, dated 2017).

≈ marks a conversion by molar mass, not a printed value.

Assay [1] deals with super sensitive Gram-negative Escherichia coli (E. coli) BAS849. Nature of the assay: Antibacterial activity, microbroth dilution MIC, E. coli BAS849. The format is cell-based. Conditions: Escherichia coli; E. coli BAS849, microbroth dilution; read-out: MIC, BAS849. In general terms: Broth dilution looks for growth in wells or tubes with falling amounts of substance.
The test system of assay [2] is Klebsiella pneumoniae (K. pneumoniae) 35657. Nature of the assay: Antibacterial activity, MIC, K. pneumoniae 35657. The format is cell-based. The following applies: Klebsiella pneumoniae.
For assay [3], the system named is Acinetobacter baumannii (A. baumannii) BAA747. Nature of the assay: Antibacterial activity, MIC, A. baumannii BAA747. The format is cell-based. Conditions: Acinetobacter baumannii; A. baumannii BAA747; read-out: MIC BAA747.
Assay [4] deals with Pseudomonas aeruginosa (P. aeruginosa) 27853. Nature of the assay: Antibacterial activity, MIC, P. aeruginosa 27853. The format is cell-based. The following applies: Pseudomonas aeruginosa, P. aeruginosa 27853; read-out: MIC 27853. An excerpt:
(§1) The antibacterial activity from a microbroth dilution method may be presented as the minimum inhibitory concentration (MIC in […]). The MIC value is the lowest concentration of a drug which prevents macroscopically visible bacterial growth under test conditions.
Antibacterial activity of test compounds against the Gram-negative bacterium Pseudomonas aeruginosa (P. aeruginosa) 27853 is shown in Table 5.

Assay [5] concerns quinolone resistant E. coli LZ3111. Nature of the assay: Antibacterial activity, MIC, quinolone resistant E. coli LZ3111. In kind it is cell-based, Escherichia coli. Conditions: Escherichia coli, read-out: MIC, LZ3111.
Excerpt: as §1
Mutations in these regions are known to confer a high level resistance to the quinolone class of antibiotics.

Assay [6] relates to Gram-positive Staphylococcus aureus (S. aureus) 29213. Kind of assay: Antibacterial activity, microbroth dilution MIC, S. aureus 29213. The format is cell-based. The following applies: Staphylococcus aureus; S. aureus 29213, microbroth dilution; read-out: MIC, 29213.
The subject of assay [7] is resistant K. pneumoniae MXX1232 (MDR clinical isolate). Kind of assay: Antibacterial activity, MIC, resistant K. pneumoniae MXX1232. The format is cell-based, Klebsiella pneumoniae. The following applies: Klebsiella pneumoniae; resistant K. pneumoniae MMX1232, MDR clinical isolate; read-out: MIC MMX1232.
The test system of assay [8] is control Gram-negative E. coli 25922 strain. Kind of assay: Antibacterial activity, microbroth dilution MIC, E. coli 25922. The following applies: Escherichia coli; E. coli 25922, microbroth dilution; read-out: MIC, 25922. The format is cell-based, Escherichia coli.
The subject of assay [9] is resistant A. baumannii MXX2240 (MDR clinical isolate). Kind of assay: Antibacterial activity, MIC, resistant A. baumannii MXX2240. In kind it is cell-based, Acinetobacter baumannii. The following applies: Acinetobacter baumannii, resistant A. baumannii MMX2240, MDR clinical isolate; read-out: MIC MMX2240.

What is called MIC is the lowest concentration that inhibits growth of the organism. Regarding `CCc1c(-c2ccc(N3CC4(CCCN4)C3)cc2)[nH]c(=O)c(C(=O)O)c1O` [Cpd 323, 6-(4-(2,5-diazaspiro[3.4]octan-2-yl)phenyl)-5-ethyl-4-hydroxy-2-oxo-1,2-dihydropyridine-3-carboxylic acid], the MIC in assay [1] lay within 1 to 3.5 µg/mL (≈ 2.71 to 9.47 µM); in assay [2] it was 12.5 to 150 µg/mL (≈ 33.8 to 406 µM); in [3], 12.5 to 150 µg/mL (≈ 33.8 to 406 µM); in assay [4], 12.5 to 150 µg/mL (≈ 33.8 to 406 µM); in [5] it was 3.5 to 12.5 µg/mL (≈ 9.47 to 33.8 µM); in assay [6], 12.5 to 150 µg/mL (≈ 33.8 to 406 µM). The MIC in assay [7] fell in the range of 12.5 to 150 µg/mL (≈ 33.8 to 406 µM); in assay [8], 3.5 to 12.5 µg/mL (≈ 9.47 to 33.8 µM); in [9], 12.5 to 150 µg/mL (≈ 33.8 to 406 µM).

As for `CCc1c(-c2ccc(N3CC4(CNC4)C3)cc2)[nH]c(=O)c(C(=O)O)c1O` [Cpd 324, 6-(4-(2,6-diazaspiro[3.3]heptan-2-yl)phenyl)-5-ethyl-4-hydroxy-2-oxo-1,2-dihydropyridine-3-carboxylic acid], the MIC lay within 3.5 to 12.5 µg/mL (≈ 9.85 to 35.2 µM) in assay [1]; 12.5 to 150 µg/mL (≈ 35.2 to 422 µM) in [2]; 12.5 to 150 µg/mL (≈ 35.2 to 422 µM) in [3]; 12.5 to 150 µg/mL (≈ 35.2 to 422 µM) in assay [4]; 12.5 to 150 µg/mL (≈ 35.2 to 422 µM) in [5]; 12.5 to 150 µg/mL (≈ 35.2 to 422 µM) in assay [6]. The MIC in assay [7], in assay [8] and in [9] was 12.5 to 150 µg/mL (≈ 35.2 to 422 µM) throughout.

With `CCNc1ccc(-c2[nH]c(=O)c(C(=O)O)c(O)c2CC)cc1` [Cpd 325, 5-ethyl-6-(4-(ethylamino)phenyl)-4-hydroxy-2-oxo-1,2-dihydropyridine-3-carboxylic acid], the MIC in [1] was less than 1 µg/mL; in assay [2], 3.5 to 12.5 µg/mL (≈ 11.6 to 41.3 µM); in [3] it was 3.5 to 12.5 µg/mL (≈ 11.6 to 41.3 µM); in assay [4] it was 12.5 to 150 µg/mL (≈ 41.3 to 496 µM); in assay [5], 12.5 to 150 µg/mL (≈ 41.3 to 496 µM); in assay [6], 12.5 to 150 µg/mL (≈ 41.3 to 496 µM). Moreover, the figures for the MIC in assay [7], in assay [8] and in [9] were 12.5 to 150 µg/mL (≈ 41.3 to 496 µM), 3.5 to 12.5 µg/mL (≈ 11.6 to 41.3 µM) and 12.5 to 150 µg/mL (≈ 41.3 to 496 µM), respectively.

Consider `CCc1c(-c2ccc(NC)cc2)[nH]c(=O)c(C(=O)O)c1O` [Cpd 326, 5-ethyl-4-hydroxy-6-(4-(methylamino)phenyl)-2-oxo-1,2-dihydropyridine-3-carboxylic acid], for which the MIC in assay [1] was less than 1 µg/mL; in assay [2] it was 3.5 to 12.5 µg/mL (≈ 12.1 to 43.4 µM); in [3], 1 to 3.5 µg/mL (≈ 3.47 to 12.1 µM); in assay [4], 12.5 to 150 µg/mL (≈ 43.4 to 520 µM); in assay [5] it was 12.5 to 150 µg/mL (≈ 43.4 to 520 µM); in [6], 12.5 to 150 µg/mL (≈ 43.4 to 520 µM). Further, the minimum inhibitory concentration (MIC) fell in the range of 12.5 to 150 µg/mL (≈ 43.4 to 520 µM) in assay [7], 3.5 to 12.5 µg/mL (≈ 12.1 to 43.4 µM) in [8] and 3.5 to 12.5 µg/mL (≈ 12.1 to 43.4 µM) in assay [9].

As for `CN(C)c1ccc(-c2[nH]c(=O)c(C(=O)O)c(O)c2CC=O)cc1` [Cpd 327, 6-(4-(dimethylamino)phenyl)-4-hydroxy-2-oxo-5-(2-oxoethyl)-1,2-dihydropyridine-3-carboxylic acid], the MIC in assay [1] was in the range of 3.5 to 12.5 µg/mL (≈ 11.1 to 39.5 µM); in assay [2] it was 12.5 to 150 µg/mL (≈ 39.5 to 474 µM); in assay [3] it was 12.5 to 150 µg/mL (≈ 39.5 to 474 µM); in [4], 12.5 to 150 µg/mL (≈ 39.5 to 474 µM); in assay [5] it was 12.5 to 150 µg/mL (≈ 39.5 to 474 µM); in assay [6] it was 12.5 to 150 µg/mL (≈ 39.5 to 474 µM). Also, the MIC in [7], in assay [8] and in assay [9] was 12.5 to 150 µg/mL (≈ 39.5 to 474 µM) each time.

For the compound `CN(C)c1ccc(-c2[nH]c(=O)c(C(=O)O)c(O)c2CCO)cc1` [Cpd 328, 6-(4-(dimethylamino)phenyl)-4-hydroxy-5-(2-hydroxyethyl)-2-oxo-1,2-dihydropyridine-3-carboxylic acid], the MIC in [1] is less than 1 µg/mL; in [2], 3.5 to 12.5 µg/mL (≈ 11 to 39.3 µM); in assay [3] it was 12.5 to 150 µg/mL (≈ 39.3 to 471 µM); in assay [4] it was 12.5 to 150 µg/mL (≈ 39.3 to 471 µM); in assay [5], 3.5 to 12.5 µg/mL (≈ 11 to 39.3 µM); in assay [6] it was 12.5 to 150 µg/mL (≈ 39.3 to 471 µM). Also, the figures for the MIC in assay [7], in assay [8] and in assay [9] were 12.5 to 150 µg/mL (≈ 39.3 to 471 µM), 3.5 to 12.5 µg/mL (≈ 11 to 39.3 µM) and 3.5 to 12.5 µg/mL (≈ 11 to 39.3 µM), respectively.

For `CN(C)c1ccc(-c2[nH]c(=O)c(C(=O)O)c(O)c2CC(O)CO)cc1` (stereo not drawn) [Cpd 329, 5-(2,3-dihydroxypropyl)-6-(4-(dimethylamino)phenyl)-4-hydroxy-2-oxo-1,2-dihydropyridine-3-carboxylic acid], the MIC fell in the range of 12.5 to 150 µg/mL (≈ 35.9 to 431 µM) in assay [1]; 12.5 to 150 µg/mL (≈ 35.9 to 431 µM) in [2]; 12.5 to 150 µg/mL (≈ 35.9 to 431 µM) in assay [3]; 12.5 to 150 µg/mL (≈ 35.9 to 431 µM) in assay [4]; 3.5 to 12.5 µg/mL (≈ 10 to 35.9 µM) in assay [5]; 12.5 to 150 µg/mL (≈ 35.9 to 431 µM) in assay [6]. The MIC in [7], in assay [8] and in [9] was 12.5 to 150 µg/mL (≈ 35.9 to 431 µM) throughout.
